Entries after “also recorded” stand apart in the source; their conditions may differ.
How the values were obtained:
[1] = tested on: model mice with choroidal neovascularization (CNV); assay: CNV formation in laser-induced CNV model mice, intravitreal injection (Experiments 2 and 3); type: in vivo; details: for CNV formation (area of CNV): 20 pmol intraocularly injected immediately after laser irradiation, 7 days, C57B/6J mice, FIG. 2
Protocol: [Experiment 2: Evaluation of Effect of Inhibiting CNV Formation by Compounds 1 to 3]
The synthesized compounds 1 to 3 and the above reference compound were administered to model mice with choroidal neovascularization (CNV) by intravitreal injection, and the CNV inhibition was evaluated. The details of the experiment are as follows. FIG. 2 illustrates the results.
100 mg/kg of ketamine and 10 mg/kg of xylazine were intraperitoneally injected into 6- to 8-week-old C57B/6J mice (Japan SLC, Inc.), and the mice were placed under anesthesia. Then, eyedrops (SANDOL P) containing tropicamide (5 mg/ml) and phenylephrine (5 mg/ml) were used to dilate the pupil. Any four points of the fundus were irradiated with a 532 nm argon laser (100 mW, 0.1 s, 75 μm) to form new blood vessels. The compound (20 pmol) was intraocularly injected immediately after the laser irradiation, and an ofloxacin (Tarivid) ophthalmic ointment was applied to the corneal surface to prevent infection and drying.
100 mg/kg of ketamine and 10 mg/kg of xylazine were intraperitoneally injected into the mice after 7 days had passed from the laser irradiation, and the mice were placed under anesthesia. Then, the mice underwent thoracotomy and were perfused with FITC-dextran (50 mg/ml; Life Technologies Japan Ltd.) through the left ventricle. After the perfusion, the eyes were enucleated and fixed in 4% paraformaldehyde. After the fixation, the corneas, crystalline lenses, and retinas were removed, and the flat mount of the choroid was obtained. CNV was imaged with a fluorescence microscope (BZ-9000; Keyence Corporation) so that the area of the CNV was measured.
An experiment was performed in the same manner as Experiment 2 by administering the compound 2 at different concentrations (0.2 µM, 2 µM, 20 µM), and the CNV inhibition was evaluated. FIG. 3 illustrates the results.

[2] = tested on: model mice with choroidal neovascularization (CNV); assay: CNV formation in CNV model mice, ophthalmic ointment (Experiment 4); type: in vivo; details: ophthalmic ointment with 10 g compound 2 per 100 g, 7 μL three times a day, versus base material only, FIG. 4
Protocol: [Experiment 4: Preparation of Ophthalmic Ointment and Evaluation of Effect of Inhibiting CNV Formation by Using the Ophthalmic Ointment]
An ophthalmic ointment with the following composition was prepared.
60 g of liquid paraffin; and
30 g of white petrolatum.
An experiment was performed in the same manner as Experiment 2 except that the ophthalmic ointment was applied in a dose of 7 μL three times a day, instead of the intravitreal injection, and the CNV inhibition was evaluated. Moreover, an ophthalmic ointment containing only a base material was used as a control, and the same experiment was performed. FIG. 4 illustrates the results. A of FIG. 4 is a graph that indicates the area of CNV.

[3] = tested on: vascular endothelial growth factor (VEGF); assay: VEGF protein in culture medium of ARPE-19 cells by ELISA (Experiment 1); type: cell-based, human; details: compound 10 μM, TGF-β 1 nM, 72 hours, FIG. 1
Protocol: [Experiment 1: Evaluation of Effect of Inhibiting VEGF Expression by Compounds 1 to 3]
The synthesized compounds 1 to 3 and the following reference compound were administered to human retinal pigment epithelial cells (ARPE-19 cell line). After 3 days of cultivation, each culture medium was subjected to ELISA to determine a vascular endothelial growth factor (VEGF). The details of the experiment are as follows. FIG. 1 illustrates the results.
A retinal pigment epithelial cell line, i.e., ARPE-19 was used. The ARPE-19 was cultured in Ham's F-12/DMEM medium containing 10% fetal bovine serum and 1% penicillin-streptomycin solution. The cells were seeded on a 24 well plate at 1.0×10^4 cell/well. On the next day, the culture medium was replaced with 1% fetal bovine serum. Further, the culture medium was removed 24 hours later and replaced with a culture medium (containing 1% fetal bovine serum) to which the compound (10 μM) and TGF-β (1 nM) were added. The culture medium was replaced every 24 hours in the same manner. Then, the culture medium was collected after 72 hours had passed from the administration of the compound. An ELISA kit (manufactured by R&D Systems, Inc.) was used to measure the amount of VEGF protein in the culture medium. The absorbance was measured by an ARVO X5 multiplate reader.

[4] = tested on: retinal neovascularization; details: Nowak D G, Bates D O et al., J. Bio. Chem. 2010; cited from earlier work
SRPK (kinase) = details: see WO 2005/063293; cited from earlier work
[5] = see WO 2005/063293; cited from earlier work

Row | melting point | SMILES | CNV formation (area of CNV) [1] | CNV formation (area of CNV) [2] | amount of VEGF protein in the culture medium [3] | concentration dependence of reduction of CNV formation ([1]; intravitreal injection, FIG. 3) | retinal neovascularization [4] | SRPK (kinase) inhibition (SRPK (kinase)) | antiviral activity [5]
1 | 260 °C (dec.) | COc1cc(/C=C2/C(=O)NN(c3ccc(Cl)c(Cl)c3)C2=O)ccc1O [compound 1, 1-(3,4-dichlorophenyl)-4-(4-hydroxy-3-methoxybenzylidene)pyrazolidine-3,5-dione] | significant | – | – | – | – | – | –
2 | 224 to 225 °C | COc1cc(/C=C2\C(=N)N3N=C(C(F)(F)F)SC3=NC2=O)ccc1O [compound 2, 6-(4-hydroxy-3-methoxybenzylidene)-5-imino-2-(trifluoromethyl)-5,6-dihydro-7H-[1,3,4]thiadiazolo[3,2-a]pyrimidin-7-one] | significant; also recorded: more prominent | reduced the CNV formation | particularly significant | reduced the CNV formation in a concentration-dependent manner | – | – | –
3 | – | O=C(Nc1cc(C(F)(F)F)ccc1N1CCCCC1)c1ccncc1 [reference compound] | – | – | – | – | suppress retinal neovascularization | inhibits SRPK | has antiviral activity

From patent US20190365762A1, “MEDICINAL COMPOSITION INHIBITING NEOVASCULARIZATION PROLIFERATION FACTOR” (KYOTO UNIVERSITY, priority 2014, published 2019)
